Test [1] addresses T1, human FGF-1 (flg) receptor tyrosine kinase (Homo sapiens, UniProt P11362).
T1 construct: a fragment of DNA that codes for the intracellular tyrosine kinase domain; made in house; host or cells: Sf9 insect cells (baculovirus), cell lysate
As to the kind of experiment: FGF receptor tyrosine kinase assay. The format is biochemical. Particulars: read-out: Inhibition of Protein Tyrosine Kinases, FGF, IC50. The method, boiled down: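 Intracellular kinase domains expressed in baculovirus-infected SF9 cells; crude lysate used as enzyme. Inhibitor preincubated 10 min at 25 °C with lysate in pH 7.0 Hepes buffer with 10 mM MnCl2 and poly(Glu-Tyr) 4:1, then γ-32P-ATP (50 μM ATP) added for 10 min at 25 °C. TCA-precipitated 32P on filters counted, no-enzyme background subtracted.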

Test [2] addresses T2, Human EGF receptor tyrosine kinase (Homo sapiens, UniProt P00533).
T2 construct: isolated from A431 epidermoid carcinoma cells; endogenous in cells; host or cells: A431 epidermoid carcinoma cells (Triton lysate, wheat germ agglutinin eluate)
As to the kind of experiment: EGF receptor tyrosine kinase assay. Particulars: read-out: Inhibition of Protein Tyrosine Kinases, EGF, IC50. The test is classed as biochemical. The method, boiled down: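 Enzyme was purified from A431 cell lysate on wheat germ agglutinin sepharose and eluted with N-acetylglucosamine. Reactions were stopped with 75 mM phosphoric acid. Peptide substrate was captured on phosphocellulose filters, washed and counted by scintillation to derive IC50.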

T1 sequence (P11362 478-767 limits assumed): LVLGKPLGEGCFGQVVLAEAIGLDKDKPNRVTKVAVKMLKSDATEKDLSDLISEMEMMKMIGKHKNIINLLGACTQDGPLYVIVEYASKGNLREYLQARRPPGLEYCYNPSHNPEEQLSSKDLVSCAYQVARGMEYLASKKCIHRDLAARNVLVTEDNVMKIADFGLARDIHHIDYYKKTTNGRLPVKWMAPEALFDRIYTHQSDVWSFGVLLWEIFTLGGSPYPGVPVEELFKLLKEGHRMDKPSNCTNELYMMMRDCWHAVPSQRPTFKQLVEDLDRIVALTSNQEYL
T2 sequence (P00533 25-1210): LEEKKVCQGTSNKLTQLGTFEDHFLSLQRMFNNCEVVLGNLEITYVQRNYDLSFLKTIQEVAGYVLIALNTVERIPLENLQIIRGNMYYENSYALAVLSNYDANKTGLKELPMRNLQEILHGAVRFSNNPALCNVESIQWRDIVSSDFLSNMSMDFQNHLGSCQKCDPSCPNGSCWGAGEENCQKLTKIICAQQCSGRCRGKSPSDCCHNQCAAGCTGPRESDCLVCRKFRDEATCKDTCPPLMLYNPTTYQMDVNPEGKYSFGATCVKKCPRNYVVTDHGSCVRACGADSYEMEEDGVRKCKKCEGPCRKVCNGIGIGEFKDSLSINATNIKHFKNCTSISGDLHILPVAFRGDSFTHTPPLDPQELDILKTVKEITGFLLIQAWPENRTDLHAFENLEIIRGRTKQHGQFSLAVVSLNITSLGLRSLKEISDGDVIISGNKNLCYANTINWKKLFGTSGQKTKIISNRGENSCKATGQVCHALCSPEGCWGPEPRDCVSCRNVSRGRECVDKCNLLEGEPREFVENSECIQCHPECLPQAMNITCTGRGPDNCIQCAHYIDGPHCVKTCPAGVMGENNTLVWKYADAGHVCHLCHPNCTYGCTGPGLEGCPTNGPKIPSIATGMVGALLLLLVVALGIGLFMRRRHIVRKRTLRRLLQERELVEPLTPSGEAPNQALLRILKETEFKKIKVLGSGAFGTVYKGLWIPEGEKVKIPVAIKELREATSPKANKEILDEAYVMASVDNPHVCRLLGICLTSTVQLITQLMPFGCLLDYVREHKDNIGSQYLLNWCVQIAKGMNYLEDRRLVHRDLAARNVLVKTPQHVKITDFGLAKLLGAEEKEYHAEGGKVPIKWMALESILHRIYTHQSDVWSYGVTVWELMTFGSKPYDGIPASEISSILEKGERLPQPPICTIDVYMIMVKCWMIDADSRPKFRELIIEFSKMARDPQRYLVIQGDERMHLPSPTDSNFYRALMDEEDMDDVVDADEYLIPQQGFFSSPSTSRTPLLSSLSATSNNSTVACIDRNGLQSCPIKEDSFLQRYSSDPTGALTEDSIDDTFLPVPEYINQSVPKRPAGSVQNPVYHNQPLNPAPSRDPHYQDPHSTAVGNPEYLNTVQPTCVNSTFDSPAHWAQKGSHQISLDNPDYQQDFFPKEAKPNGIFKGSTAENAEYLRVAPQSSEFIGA

On to `Cc1ccccc1-c1cc2cnc(N)nc2nc1N` [Example 90, 6-o-Tolyl-pyrido[2,3-d]pyrimidine-2,7-diamine], for which the results for the IC50 in test [1] and in test [2] were 11.5 µM and 22.8 µM, respectively.

What is called IC50 is the concentration at which inhibition is half-maximal.

These data come from US5733913A, “6-Aryl pyrido[2,3-d] pyrimidines and naphthyridines for inhibiting protein tyrosine kinase mediated cellular proliferation” (priority 1995, dated 1998).
